Consider 27 molecules from US8415469B2, “Compounds and methods for kinase modulation, and indications therefor” (Plexxikon Inc., priority 2005, dated 2013).

Format in all cases: biochemical
The target in experiment [1] is T1, Jnk1 (Homo sapiens, UniProt P45983).
T1 construct: purchased Upstate Biotechnology
In words: AlphaScreen kinase assay, Jnk1. Particulars: read-out: IC50, activity toward kinase Jnk1. (In general: Alpha assays give light when donor and acceptor beads are brought close together.)

In experiment [2] the target is T2, Stk6 (Homo sapiens, UniProt O14965).
T2 construct: purchased Invitrogen (Carlsbad, Calif.), screening service
T2 sequence (O14965 1-403): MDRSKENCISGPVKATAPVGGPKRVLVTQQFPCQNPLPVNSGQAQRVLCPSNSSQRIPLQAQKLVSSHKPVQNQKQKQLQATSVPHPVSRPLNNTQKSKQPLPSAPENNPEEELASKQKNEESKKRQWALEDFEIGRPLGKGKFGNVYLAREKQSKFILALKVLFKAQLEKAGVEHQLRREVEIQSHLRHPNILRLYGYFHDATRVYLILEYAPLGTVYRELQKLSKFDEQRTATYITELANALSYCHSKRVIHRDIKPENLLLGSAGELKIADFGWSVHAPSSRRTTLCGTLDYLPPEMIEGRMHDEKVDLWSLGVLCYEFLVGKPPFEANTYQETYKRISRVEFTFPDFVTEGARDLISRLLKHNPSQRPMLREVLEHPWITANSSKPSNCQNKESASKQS
Put plainly: Z'-Lyte FRET kinase assay (Invitrogen), Stk6. As to conditions: read-out: IC50, activity toward kinase Stk6.

Experiment [3] has as its target T3, EphB2 (Homo sapiens, UniProt P29323).
T3 construct: purchased Invitrogen (assay run by Invitrogen)
T3 sequence (P29323 19-1055): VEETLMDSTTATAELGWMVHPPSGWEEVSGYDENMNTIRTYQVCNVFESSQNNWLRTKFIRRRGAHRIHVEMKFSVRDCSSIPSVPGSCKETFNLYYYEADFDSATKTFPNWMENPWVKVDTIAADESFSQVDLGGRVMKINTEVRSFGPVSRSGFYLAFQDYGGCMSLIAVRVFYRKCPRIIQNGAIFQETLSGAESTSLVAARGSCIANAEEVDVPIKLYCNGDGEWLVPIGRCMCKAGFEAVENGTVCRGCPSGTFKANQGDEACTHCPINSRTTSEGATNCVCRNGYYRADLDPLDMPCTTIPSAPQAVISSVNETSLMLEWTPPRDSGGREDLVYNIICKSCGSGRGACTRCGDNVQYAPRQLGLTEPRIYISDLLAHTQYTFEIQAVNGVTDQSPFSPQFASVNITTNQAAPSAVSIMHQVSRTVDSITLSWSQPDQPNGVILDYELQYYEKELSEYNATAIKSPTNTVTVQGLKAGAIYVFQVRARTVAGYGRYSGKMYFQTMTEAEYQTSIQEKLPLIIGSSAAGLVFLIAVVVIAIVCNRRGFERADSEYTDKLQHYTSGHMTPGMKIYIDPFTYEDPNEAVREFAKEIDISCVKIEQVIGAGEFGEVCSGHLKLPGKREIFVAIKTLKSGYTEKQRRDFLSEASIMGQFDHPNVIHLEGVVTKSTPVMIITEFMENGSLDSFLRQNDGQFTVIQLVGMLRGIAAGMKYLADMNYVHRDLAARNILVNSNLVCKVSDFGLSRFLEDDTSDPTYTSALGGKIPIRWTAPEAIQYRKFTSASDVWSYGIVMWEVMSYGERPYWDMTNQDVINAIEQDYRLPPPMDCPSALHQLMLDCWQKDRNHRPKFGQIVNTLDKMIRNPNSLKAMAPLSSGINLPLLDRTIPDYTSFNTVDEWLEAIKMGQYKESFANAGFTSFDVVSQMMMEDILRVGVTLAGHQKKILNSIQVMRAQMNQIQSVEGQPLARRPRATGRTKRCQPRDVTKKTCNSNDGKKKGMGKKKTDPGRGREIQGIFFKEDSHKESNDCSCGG
Put plainly: Z'-Lyte FRET kinase assay (Invitrogen), EphB2. As to conditions: read-out: IC50, activity toward kinase EphB2. A digest of the protocol: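 Inhibition was inferred from protease cleavage of non-phosphorylated peptide, measured as a coumarin/fluorescein ratio. Kinase reactions used 10 μM ATP for 1 h at room temperature.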

The target in experiment [4] is T4, Src (Homo sapiens, UniProt P12931).
T4 construct: P1144. pET-N6 BI-PTP SRC V86-L536-X; made in house
In words: AlphaScreen kinase assay, Src. Particulars: read-out: IC50, activity toward kinase Src.

Experiment [5] deals with T5, Btk (Homo sapiens, UniProt Q06187).
T5 construct: purchased Invitrogen (assay run by Invitrogen)
Put plainly: Z'-Lyte FRET kinase assay (Invitrogen), Btk. Particulars: read-out: IC50, activity toward kinase Btk.

T5 sequence (Q06187 whole entry): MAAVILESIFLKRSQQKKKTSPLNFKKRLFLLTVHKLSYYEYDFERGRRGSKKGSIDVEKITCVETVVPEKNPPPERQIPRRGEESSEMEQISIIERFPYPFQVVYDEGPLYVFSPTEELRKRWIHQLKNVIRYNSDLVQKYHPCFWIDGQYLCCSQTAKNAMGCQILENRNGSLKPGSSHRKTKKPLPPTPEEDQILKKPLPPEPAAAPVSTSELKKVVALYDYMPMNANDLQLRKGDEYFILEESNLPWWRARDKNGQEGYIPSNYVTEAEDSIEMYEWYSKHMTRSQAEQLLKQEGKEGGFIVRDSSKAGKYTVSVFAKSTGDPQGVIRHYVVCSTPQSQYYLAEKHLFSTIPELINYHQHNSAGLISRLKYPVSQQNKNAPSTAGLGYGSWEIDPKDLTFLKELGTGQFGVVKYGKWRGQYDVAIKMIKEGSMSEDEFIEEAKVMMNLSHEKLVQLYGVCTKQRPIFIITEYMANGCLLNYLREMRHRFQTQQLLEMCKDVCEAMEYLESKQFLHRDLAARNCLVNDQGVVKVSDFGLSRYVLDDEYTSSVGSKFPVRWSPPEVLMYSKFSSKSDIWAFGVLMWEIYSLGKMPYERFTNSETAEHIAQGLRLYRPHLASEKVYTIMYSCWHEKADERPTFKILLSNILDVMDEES
T1 sequence (P45983 whole entry): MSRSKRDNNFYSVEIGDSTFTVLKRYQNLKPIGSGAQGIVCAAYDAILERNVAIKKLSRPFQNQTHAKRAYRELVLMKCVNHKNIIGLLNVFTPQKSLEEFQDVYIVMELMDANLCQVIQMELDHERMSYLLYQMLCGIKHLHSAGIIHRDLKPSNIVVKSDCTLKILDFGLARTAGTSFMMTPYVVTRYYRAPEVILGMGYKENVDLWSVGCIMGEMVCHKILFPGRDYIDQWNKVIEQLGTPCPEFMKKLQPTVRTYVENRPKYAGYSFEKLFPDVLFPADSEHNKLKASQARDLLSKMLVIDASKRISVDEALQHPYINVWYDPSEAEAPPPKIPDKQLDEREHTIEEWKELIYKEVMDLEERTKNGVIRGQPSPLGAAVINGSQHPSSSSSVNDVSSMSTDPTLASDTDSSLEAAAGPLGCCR
T4 sequence (P12931 with tags, fused parts or gaps): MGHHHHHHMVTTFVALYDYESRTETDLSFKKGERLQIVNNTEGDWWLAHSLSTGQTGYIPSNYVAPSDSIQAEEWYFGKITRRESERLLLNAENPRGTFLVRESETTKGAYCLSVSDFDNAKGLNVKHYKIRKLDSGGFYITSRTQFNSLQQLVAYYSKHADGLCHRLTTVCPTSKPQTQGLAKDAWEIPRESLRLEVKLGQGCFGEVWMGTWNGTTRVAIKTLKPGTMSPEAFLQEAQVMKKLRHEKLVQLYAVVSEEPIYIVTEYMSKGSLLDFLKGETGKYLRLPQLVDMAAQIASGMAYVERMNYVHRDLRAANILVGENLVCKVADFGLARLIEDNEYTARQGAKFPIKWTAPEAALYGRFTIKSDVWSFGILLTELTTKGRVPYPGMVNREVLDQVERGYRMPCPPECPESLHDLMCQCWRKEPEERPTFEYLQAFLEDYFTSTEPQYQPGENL

As a reminder, the IC50 is the concentration that inhibits the measured activity by half. For the molecule `O=C(c1cc(O)ccc1F)c1c[nH]c2ncc(-c3cccs3)cc12` [Compound P-0032], the IC50 in experiment [1], in experiment [2], in experiment [3] and in experiment [4] was ≤ 10 µM each time.
On to `NC(=O)c1cccc(-c2cnc3[nH]cc(C(=O)c4cccc(O)c4F)c3c2)c1` [Compound P-0034, 3-[3-(2-Fluoro-3-hydroxy-benzoyl)-1H-pyrrolo[2,3-b]pyridin-5-yl]benzamide], for which the IC50 in experiment [1], in experiment [3] and in experiment [4] was ≤ 10 µM in each case.
On to `CC(=O)Nc1cccc(-c2cnc3[nH]cc(C(=O)c4cccc(O)c4F)c3c2)c1` [Compound P-0035, N-{3-[3-(2-Fluoro-3-hydroxy-benzoyl)-1H-pyrrolo[2,3-b]pyridin-5-yl]-phenyl}-acetamide], for which the IC50 in experiment [1], in experiment [2], in experiment [3] and in experiment [4] was ≤ 10 µM in each case.
As to `O=C(c1cccc(O)c1F)c1c[nH]c2ncc(-c3ccccc3)cc12` [Compound P-0036, (2-fluoro-3-hydroxy-phenyl)-(5-phenyl-1H-pyrrolo[2,3-b]pyridin-3-yl)-methanone], the IC50 in experiment [1], in experiment [3] and in experiment [4] was ≤ 10 µM in each case.
Turning to `CS(=O)(=O)Nc1cccc(-c2cnc3[nH]cc(C(=O)c4cccc(O)c4F)c3c2)c1` [Compound P-0038, N-{3-[3-(2-Fluoro-3-hydroxy-benzoyl)-1H-pyrrolo[2,3-b]pyridin-5-yl]-phenyl}-methanesulfonamide], the IC50 in experiment [1], in experiment [3] and in experiment [4] was ≤ 10 µM in each case.
With `O=C(c1cccc(O)c1)c1c[nH]c2ncc(-c3cccnc3)cc12` [Compound P-0048], the IC50 in experiment [5] and in experiment [3] was ≤ 10 µM each time.
As for `Cc1ccc(F)cc1C(=O)c1c[nH]c2ncc(-c3ccc(C(N)=O)cc3)cc12` [Compound P-0050], the IC50 in experiment [5] and in experiment [3] was ≤ 10 µM each time.
For the molecule `Oc1cccc(Cc2c[nH]c3ncc(-c4ccsc4)cc23)c1` [Compound P-0056], the IC50 in experiment [1], in experiment [2] and in experiment [3] was ≤ 10 µM throughout.
As for `Cc1ccc(S(=O)(=O)NCc2c[nH]c3ncccc23)cc1` [Compound P-0058], the IC50 in experiment [2] is ≤ 10 µM.
In the case of `Oc1ccc(F)c(Cc2c[nH]c3ncc(-c4cccnc4)cc23)c1F` [Compound P-0078, 2,4-difluoro-3-(5-pyridin-3-yl-1H-pyrrolo[2,3-b]pyridin-3-ylmethyl)-phenol], the IC50 in experiment [1], in experiment [3] and in experiment [4] was ≤ 10 µM each time.
Consider `Cc1c(NS(C)(=O)=O)cccc1C(=O)c1c[nH]c2ncc(-c3ccccc3)cc12` [Compound P-0082, N-[2-Methyl-3-(5-phenyl-1H-pyrrolo[2,3-b]pyridine-3-carbonyl)-phenyl]-methanesulfonamide], for which the IC50 in experiment [1], in experiment [5], in experiment [2] and in experiment [4] was ≤ 10 µM throughout.
Turning to `OC(c1c(F)ccc(F)c1F)c1c[nH]c2ncc(-c3cccnc3)cc12` (stereo not shown) [Compound P-0101], in experiment [2], the IC50 is ≤ 10 µM.
Still for that read-out and setting: the result for `Fc1cc(F)cc(-c2ccnc3[nH]cc(Sc4ccccn4)c23)c1` [Compound P-0106] reads ≤ 10 µM.
`Cc1c(O)cccc1C(=O)c1c[nH]c2ncc(-c3cccs3)cc12` [Compound P-0114, (3-Hydroxy-2-methyl-phenyl)-(5-thiophen-2-yl-1H-pyrrolo[2,3b]pyridin-3-yl)-methanone]: the IC50 in experiment [1], in experiment [3] and in experiment [4] was ≤ 10 µM in each case.
For the molecule `Cc1ccc(F)cc1C(=O)c1c[nH]c2nccc(-c3cccc(NS(C)(=O)=O)c3)c12` [Compound P-0124], in experiment [3], the IC50 is ≤ 10 µM.
For `O=C(c1ccccc1F)c1c[nH]c2ncc(-c3ccsc3)cc12` [Compound P-0134], the IC50 in experiment [1], in experiment [5] and in experiment [4] was ≤ 10 µM throughout.
For `CN(C)S(=O)(=O)Nc1ccc(F)c(Cc2c[nH]c3ncc(-c4cccnc4)cc23)c1F` [Compound P-0166], the IC50 in experiment [5] and in experiment [4] was ≤ 10 µM throughout.
As to `CS(=O)(=O)c1cccc(-c2ccnc3[nH]cc(C(=O)c4cc(F)ccc4F)c23)c1` [Compound P-0171], the IC50 in experiment [5] and in experiment [4] was ≤ 10 µM in each case.
With `O=C(c1cccc(O)c1)c1c[nH]c2ncc(-c3cccs3)cc12` [Compound P-0196], the IC50 in experiment [1] and in experiment [4] was ≤ 10 µM throughout.
Regarding `O=C(c1cccc(O)c1F)c1c[nH]c2ncc(-c3cccs3)cc12` [Compound P-0521, (2-fluoro-3-hydroxy-phenyl)-(5-thiophen-2-yl-1H-pyrrolo[2,3-b]pyridin-3-yl)-methanone], the IC50 in experiment [1] and in experiment [4] was ≤ 10 µM throughout.
As to `CCCS(=O)(=O)Nc1ccc(F)c(C(=O)c2c[nH]c3ncc(-c4ccccc4)cc23)c1F` [Compound P-0636, Propane-1-sulfonic acid [2,4-difluoro-3-(5-phenyl-1H-pyrrolo[2,3-b]pyridine-3-carbonyl)-phenyl]-amide], in experiment [1], the IC50 is ≤ 10 µM.
As for `CCCS(=O)(=O)Nc1ccc(F)c(C(=O)c2c[nH]c3ncc(OC)cc23)c1F` [Compound P-0806, Propane-1-sulfonic acid [2,4-difluoro-3-(5-methoxy-1H-pyrrolo[2,3-b]pyridine-3-carbonyl)-phenyl]-amide], the IC50 in experiment [5], in experiment [2] and in experiment [4] was ≤ 10 µM throughout.
As to `CCCC(=O)Nc1ccc(F)c(Cc2c[nH]c3ncc(-c4cccnc4)cc23)c1F` [Compound P-1280], the IC50 in experiment [1], in experiment [2] and in experiment [4] was ≤ 10 µM each time.
In the case of `CCCCNC(=O)Nc1ccc(F)c(C(=O)c2c[nH]c3ncc(-c4cccnc4)cc23)c1F` [Compound P-1318, 1-Butyl-3-[2,4-difluoro-3-(5-pyridin-3-yl-1H-pyrrolo[2,3-b]pyridine-3-carbonyl)-phenyl]-urea], the IC50 in experiment [1] and in experiment [4] was ≤ 10 µM in each case.
Regarding `COc1cccc(C(=O)c2c[nH]c3ncc(-c4cccc(NC(C)=O)c4)cc23)c1F` [Compound P-1336, N-{3-[3-(2-Fluoro-3-methoxy-benzoyl)-1H-pyrrolo[2,3-b]pyridin-5-yl]-phenyl}-acetamide], the IC50 in experiment [1], in experiment [5], in experiment [2] and in experiment [4] was ≤ 10 µM throughout.
As to `OCCOc1ccc(F)c(Cc2c[nH]c3ncc(-c4cccnc4)cc23)c1F` [Compound P-1394, 2-[2,4-Difluoro-3-(5-pyridin-3-yl-1H-pyrrolo[2,3-b]pyridin-3-ylmethyl)-phenoxy]-ethanol], the IC50 in experiment [1], in experiment [2] and in experiment [4] was ≤ 10 µM throughout.
For `COc1cc(OC)cc(C(=O)c2c[nH]c3ncc(-c4cccc(NS(C)(=O)=O)c4)cc23)c1` [Compound P-1426, N-{3-[3-(3,5-Dimethoxy-benzoyl)-1H-pyrrolo[2,3-b]pyridin-5-yl]-phenyl}-methanesulfonamide], the IC50 in experiment [5] and in experiment [2] was ≤ 10 µM each time.
